Experimental data reported in US6878388B1, “Vanadium compounds for treating proliferative cell disorders” (Parker Hughes Institute, priority 2000, dated 2005).
Where two headings read alike, the source gives them in different places.

Tests used:
[1] = test system: U87 human glioblastoma cells; test: MTT cytotoxicity assay, U87; assay type: cell-based; details: 48 h incubation, 3 independent experiments, read-out: IC50 (mean ± SE)
Experimental: Human brain tumor cells lines U87 MG (Cat.# HTB-14), U118 MG (Cat. # HTB-15), U138 (Cat # HTB-16), U373 MG (CAT. # HTB-17), and T98G (Cat. # CRL-1690) and breast cancer cell lines BT-20 (Cat # HTB-19), MDA-MB-231 (Cat # HTB-26), MDA-MB-361 (Cat # HTB-27), and MCF-7 (Cat # HTB-22) were obtained from American Type Culture Collection (ATCC, Rockville, Md.) and maintained as continuous cell lines in Dulbecco's modified Eagles's medium (U87, U118, U138, U373, T98 and BT-20) or Leibovitz's L-15 medium (MDA-MB-231 and MDA-MB-361). All media were supplemented with 10% fetal calf serum (FCS), 4 mM glutamine, 100 U/ml penicillin G and […] streptomycin sulfate. All tissue culture reagents were obtained from Life Technologies Inc. (GIBCO-BRL, Gaithersburg, Md.).
The cytotoxicity of [VO(SO4)(Me2-Phen)2] against human cancer cell lines was analyzed using the MTT (3-[4,5-dimethylthiazol-2-yl]-2,5-diphenyl tetrazolium bromide) assay (Boehringer Mannheim Corp., Indianapolis, Ind.) as described previously (Narla et al., Clin Cancer Res., 4: 1405-1414, 1998). […] The absorbance at 540 nm (a reference wavelength of 690 nm was used) of the solution in each well was measured using a microplate reader (Labsystems). The percent survival and the IC50 values were calculated using Graphpad Prism v2.0 (Graphpad Software, Inc., San Diego, Calif.) as described previously (Narla et al., Supra). […]

U87 glioblastoma cells = test: In vitro adhesion assay to ECM proteins, U87; assay type: cell-based, human; details: 16 h pretreatment, mean ± SE of 3 experiments
Experimental: In vitro adhesion assays were used to evaluate the effects of [VO(SO4)(Me2-Phen)2] on the adhesive properties of U87 and MDA-MD-231 cells as described previously (Narla et al., Clin Cancer Res, 4: 2463-2471, 1998). The plates for the adhesion assays were pre-coated with the extracellular matrix (ECM) proteins laminin, fibronectin, vitronectin and type IV collagen (each at a final concentration of 1 μg/ml in PBS) overnight at 4° C. and dried. Exponentially-growing cells (as described in the previous Example) were incubated with [VO(SO4)(Me2-Phen)2] at concentrations ranging from 0.5 μM to 25 μM for 16 hours in a humidified 5% CO2 atmosphere. The cells were then detached from the flasks with 0.05% trypsin (Life Technologies), resuspended in medium, incubated at 37° C. for 2 hours to allow them to recover from the trypsinization stress and examined for their ability to adhere to the plates precoated with ECM proteins. Cells were centrifuged, washed twice with serum-free medium, counted and resuspended in serum-free medium at a final concentration of 2.5×10^5 cells/ml. The cell suspension was added to each well in aliquots of 100 μl and the cells were allowed to adhere for one hour at 37° C. in a humidified 5% CO2atmosphere. The non-adherent cells were removed by gently washing the cells with PBS. The adherent fraction was quantitated using MTT assays as previously described (Narla, Supra).
U87 glioblastoma and MDA-MD-231 breast cancer cells were preincubated with various concentrations of [VO(SO4)(Me2-Phen)2] and processed for adhesion assays. [VO(SO4)(Me2-Phen)2] inhibited adhesion of the U87 and MDA-MB-231 cells to extracellular matrix (ECM) proteins, Pretreatment of cells with [VO(SO4)(Me2-Phen)2] inhibited the adhesion of U87 glioblastoma and MDA-MB-231 breast cancer cells to laminin-, fibronectin-, vitronectin- and collagen-coated plates. The inhibition of glioblastoma cell adhesion was concentration-dependent with mean (±SE) IC50 values from 3 independent experiments shown in the table below.

With `Cc1ccnc2c1ccc1c(C)ccnc12.Cc1ccnc2c1ccc1c(C)ccnc12.O=S(=O)([O-])[O-].[O]=[V+2]` [[VO(SO4)(Me2-Phen)2], bis(4,7-dimethyl-1,10-phenanthroline) sulfatooxovanadium (IV)] as the compound, how does the IC50 [1] read?
Its IC50 is 2100 ± 600 nM.

And the IC50 (U87 glioblastoma cells; U87, fibronectin-coated plates, read-out: IC50 inhibition of adhesion to fibronectin)?
Its IC50 is 1300 nM.

What about the IC50 (U87 glioblastoma cells; U87, laminin-coated plates, read-out: IC50 inhibition of adhesion to laminin) of the same compound?
Its IC50 is 1400 ± 100 nM.

What about the IC50 (U87 glioblastoma cells; U87, type IV collagen-coated plates, read-out: IC50 inhibition of adhesion to collagen) of the same compound?
Its IC50 is 1200 nM.

What about the IC50 (U87 glioblastoma cells; U87, vitronectin-coated plates, read-out: IC50 inhibition of adhesion to vitronectin) of the same compound?
The IC50 was 1200 ± 100 nM.
